We go through one compound from article PMC7762994 (Viruses, 2020).

The target in one assay is T1, HSPA2 (Homo sapiens, UniProt P54652).
T1 construct: endogenous in cells; host or cells: U87 cells
The experiment in a line: 2D-TPP in U87 cells. Particulars: 1.5 h, destabilized, read-out: pEC50 of protein destabilization, HSPA2 (converted). In kind it is binding.

The target of another assay is OGG1 (Homo sapiens, UniProt O15527). The assay can be described thus: Cellular thermal shift assay (CETSA), Western blot. In kind it is binding. Also on record: endogenous in cells; host or cells: SW13 or U87 cells. Background: A western blot detects proteins with antibodies after separation by electrophoresis.
Chain of OGG1 (O15527 whole entry): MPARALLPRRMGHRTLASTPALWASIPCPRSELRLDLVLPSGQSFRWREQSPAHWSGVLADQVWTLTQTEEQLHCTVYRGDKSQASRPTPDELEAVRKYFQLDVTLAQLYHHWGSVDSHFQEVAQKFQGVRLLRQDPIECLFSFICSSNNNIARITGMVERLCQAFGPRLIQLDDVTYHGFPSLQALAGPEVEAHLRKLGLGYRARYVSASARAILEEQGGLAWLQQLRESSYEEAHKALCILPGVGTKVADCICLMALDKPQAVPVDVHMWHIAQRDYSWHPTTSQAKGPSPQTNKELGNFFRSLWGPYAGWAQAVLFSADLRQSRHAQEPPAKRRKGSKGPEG
A further assay deals with T2, HSPA8 (Homo sapiens, UniProt P11142).
T2 construct: endogenous in cells; host or cells: U87 cells
T2 sequence (P11142 whole entry): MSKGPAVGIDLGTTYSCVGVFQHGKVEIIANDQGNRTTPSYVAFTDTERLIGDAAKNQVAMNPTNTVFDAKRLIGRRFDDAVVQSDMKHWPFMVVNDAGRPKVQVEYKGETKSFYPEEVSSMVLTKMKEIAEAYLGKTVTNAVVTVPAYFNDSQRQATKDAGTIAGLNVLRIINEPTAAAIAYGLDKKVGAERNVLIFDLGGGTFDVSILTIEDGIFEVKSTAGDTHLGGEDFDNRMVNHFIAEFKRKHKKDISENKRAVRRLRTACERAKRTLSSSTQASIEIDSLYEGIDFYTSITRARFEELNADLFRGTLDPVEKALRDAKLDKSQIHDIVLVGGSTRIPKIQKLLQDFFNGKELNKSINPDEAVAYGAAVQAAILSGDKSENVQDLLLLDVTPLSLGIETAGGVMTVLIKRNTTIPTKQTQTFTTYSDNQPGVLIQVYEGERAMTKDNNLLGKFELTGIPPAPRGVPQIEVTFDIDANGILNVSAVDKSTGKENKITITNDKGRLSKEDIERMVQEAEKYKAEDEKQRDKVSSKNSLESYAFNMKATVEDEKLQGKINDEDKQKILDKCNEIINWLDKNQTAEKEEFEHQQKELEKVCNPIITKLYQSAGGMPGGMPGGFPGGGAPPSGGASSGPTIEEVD
The assay can be described thus: 2D-TPP in U87 cells. In kind it is binding. Particulars: 1.5 h, destabilized, read-out: pEC50 of protein destabilization, HSPA8 (converted).

The next assay addresses T3, CALR (Homo sapiens, UniProt P27797).
T3 construct: endogenous in cells; host or cells: U87 cells
The assay can be described thus: 2D-TPP in U87 cells. Particulars: 1.5 h, stabilized, read-out: pEC50 of protein stabilization, CALR (converted). The class given is binding.

Assay [1] deals with T4, DNAJC3 (Homo sapiens, UniProt Q13217). The assay can be described thus: TPP-TR in HAZV-infected SW13 cells. The conditions noted are these: 20 μM, 4 h.
T4 sequence (Q13217 32-504): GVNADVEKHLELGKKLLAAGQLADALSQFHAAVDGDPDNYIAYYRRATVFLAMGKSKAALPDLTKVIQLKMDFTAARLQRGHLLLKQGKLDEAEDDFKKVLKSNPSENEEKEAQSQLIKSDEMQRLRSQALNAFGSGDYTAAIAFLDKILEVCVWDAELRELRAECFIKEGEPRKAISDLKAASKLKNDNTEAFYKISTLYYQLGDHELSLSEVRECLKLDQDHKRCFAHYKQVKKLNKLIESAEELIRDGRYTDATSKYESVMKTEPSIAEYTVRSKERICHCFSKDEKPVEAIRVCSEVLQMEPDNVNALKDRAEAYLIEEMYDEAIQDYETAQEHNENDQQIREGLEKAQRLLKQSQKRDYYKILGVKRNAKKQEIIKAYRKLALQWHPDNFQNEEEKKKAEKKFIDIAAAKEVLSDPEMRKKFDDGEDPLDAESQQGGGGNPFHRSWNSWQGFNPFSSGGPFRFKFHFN
Assay [2] concerns the target T5, host proteins (proteome-wide) (Homo sapiens, UniProt A0AVT1).
T5 construct: endogenous in cells; host or cells: U87 cells
T5 sequence (A0AVT1 1-1052): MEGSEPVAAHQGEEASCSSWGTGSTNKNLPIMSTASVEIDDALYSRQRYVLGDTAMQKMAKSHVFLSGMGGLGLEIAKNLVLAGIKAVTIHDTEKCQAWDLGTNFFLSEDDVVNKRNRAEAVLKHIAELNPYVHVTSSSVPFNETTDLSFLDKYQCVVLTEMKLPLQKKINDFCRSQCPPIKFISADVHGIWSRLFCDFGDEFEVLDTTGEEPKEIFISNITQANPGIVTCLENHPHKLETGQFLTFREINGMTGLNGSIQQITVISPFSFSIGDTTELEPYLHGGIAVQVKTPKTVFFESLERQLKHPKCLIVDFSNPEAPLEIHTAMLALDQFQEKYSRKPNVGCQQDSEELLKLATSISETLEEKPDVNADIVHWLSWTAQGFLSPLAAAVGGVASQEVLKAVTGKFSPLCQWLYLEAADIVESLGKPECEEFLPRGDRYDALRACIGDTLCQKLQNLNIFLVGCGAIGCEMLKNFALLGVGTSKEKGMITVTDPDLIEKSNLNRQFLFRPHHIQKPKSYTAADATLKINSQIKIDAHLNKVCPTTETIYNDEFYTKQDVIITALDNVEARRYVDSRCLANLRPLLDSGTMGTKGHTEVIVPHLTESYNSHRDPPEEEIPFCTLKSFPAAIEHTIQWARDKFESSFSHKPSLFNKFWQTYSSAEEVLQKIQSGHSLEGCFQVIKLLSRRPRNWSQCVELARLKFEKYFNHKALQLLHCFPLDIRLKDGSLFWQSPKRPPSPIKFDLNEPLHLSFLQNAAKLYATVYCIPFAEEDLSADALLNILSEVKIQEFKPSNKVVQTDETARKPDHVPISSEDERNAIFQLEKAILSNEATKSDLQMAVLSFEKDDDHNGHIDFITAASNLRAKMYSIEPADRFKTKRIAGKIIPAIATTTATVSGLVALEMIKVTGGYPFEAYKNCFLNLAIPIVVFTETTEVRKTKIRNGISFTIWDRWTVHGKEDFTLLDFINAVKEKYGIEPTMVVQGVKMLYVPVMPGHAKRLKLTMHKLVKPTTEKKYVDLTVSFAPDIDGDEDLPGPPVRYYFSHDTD
The assay can be described thus: 2D-TPP in U87 cells (proteome-wide). The conditions noted are these: protein A0AVT1 (UBA6). In kind it is binding.

The next assay deals with T6, HYOU1 (Homo sapiens, UniProt Q9Y4L1).
T6 construct: endogenous in cells; host or cells: U87 cells
T6 sequence (Q9Y4L1 33-999): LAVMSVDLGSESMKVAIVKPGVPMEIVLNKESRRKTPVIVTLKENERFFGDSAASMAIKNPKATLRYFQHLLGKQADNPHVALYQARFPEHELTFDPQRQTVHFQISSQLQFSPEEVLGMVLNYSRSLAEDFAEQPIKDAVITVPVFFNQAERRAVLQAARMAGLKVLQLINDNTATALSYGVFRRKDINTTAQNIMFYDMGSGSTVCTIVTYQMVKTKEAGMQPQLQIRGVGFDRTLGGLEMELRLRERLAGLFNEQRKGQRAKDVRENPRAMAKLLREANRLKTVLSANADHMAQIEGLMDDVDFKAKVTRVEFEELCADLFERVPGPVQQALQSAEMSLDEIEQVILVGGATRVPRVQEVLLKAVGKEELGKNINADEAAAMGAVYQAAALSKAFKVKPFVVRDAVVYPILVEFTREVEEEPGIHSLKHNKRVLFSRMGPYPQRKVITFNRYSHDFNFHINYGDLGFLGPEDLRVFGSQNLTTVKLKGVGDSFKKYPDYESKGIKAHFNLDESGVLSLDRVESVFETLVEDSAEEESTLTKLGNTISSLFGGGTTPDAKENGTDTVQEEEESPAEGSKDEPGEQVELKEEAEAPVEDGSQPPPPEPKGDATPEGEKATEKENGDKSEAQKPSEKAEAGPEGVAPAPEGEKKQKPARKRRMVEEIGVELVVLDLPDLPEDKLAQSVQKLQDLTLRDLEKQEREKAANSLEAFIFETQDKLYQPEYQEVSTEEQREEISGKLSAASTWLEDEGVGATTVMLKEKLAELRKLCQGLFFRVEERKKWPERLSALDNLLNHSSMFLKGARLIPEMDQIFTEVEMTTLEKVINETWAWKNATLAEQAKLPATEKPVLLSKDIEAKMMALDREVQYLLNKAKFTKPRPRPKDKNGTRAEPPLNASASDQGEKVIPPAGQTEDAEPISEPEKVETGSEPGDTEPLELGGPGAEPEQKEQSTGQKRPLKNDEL
The experiment in a line: 2D-TPP in U87 cells. Particulars: 1.5 h, stabilized, read-out: pEC50 of protein stabilization, HYOU1 (converted). In kind it is binding.

The target in another assay is HARS2 (Homo sapiens, UniProt P49590). The experiment in a line: TPP-TR in HAZV-infected SW13 cells. Particulars: read-out: ΔTm of HARS2.
Chain of HARS2 (P49590 34-506): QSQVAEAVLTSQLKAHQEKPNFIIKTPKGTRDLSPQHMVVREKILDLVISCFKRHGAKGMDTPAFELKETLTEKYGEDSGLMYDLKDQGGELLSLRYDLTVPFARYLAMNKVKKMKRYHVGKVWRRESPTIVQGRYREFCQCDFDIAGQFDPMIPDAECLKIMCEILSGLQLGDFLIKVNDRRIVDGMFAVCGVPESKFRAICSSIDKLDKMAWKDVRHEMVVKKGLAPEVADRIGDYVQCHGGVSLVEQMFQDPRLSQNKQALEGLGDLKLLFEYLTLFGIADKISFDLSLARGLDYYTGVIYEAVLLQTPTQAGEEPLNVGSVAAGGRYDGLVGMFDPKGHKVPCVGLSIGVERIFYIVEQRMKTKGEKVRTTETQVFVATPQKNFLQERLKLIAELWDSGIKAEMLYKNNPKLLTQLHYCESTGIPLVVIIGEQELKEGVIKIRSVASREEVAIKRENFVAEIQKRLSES
The next assay concerns the target T7, HSPA12A (Homo sapiens, UniProt O43301).
T7 construct: endogenous in cells; host or cells: U87 cells
The experiment in a line: 2D-TPP in U87 cells. In kind it is binding. The conditions noted are these: 1.5 h, destabilized, read-out: pEC50 of protein destabilization, HSPA12A (converted).

The next assay concerns Hazara virus (HAZV). The assay can be described thus: microbe, parasite or virus in culture. The conditions noted are these: Hazara virus. In kind it is cell-based.
In another assay the test system is SW13 cells. The experiment in a line: Viability of SW13 cells by nuclei count in the HAZV antiviral assay. The class given is cell-based. Particulars: Homo sapiens; HAZV, SW13, MOI 1, 24 h; read-out: Viability (nuclei count) EC50.
The target in another assay is T8, HSPA9 (Homo sapiens, UniProt P38646).
T8 construct: endogenous in cells; host or cells: U87 cells
T8 sequence (P38646 47-679): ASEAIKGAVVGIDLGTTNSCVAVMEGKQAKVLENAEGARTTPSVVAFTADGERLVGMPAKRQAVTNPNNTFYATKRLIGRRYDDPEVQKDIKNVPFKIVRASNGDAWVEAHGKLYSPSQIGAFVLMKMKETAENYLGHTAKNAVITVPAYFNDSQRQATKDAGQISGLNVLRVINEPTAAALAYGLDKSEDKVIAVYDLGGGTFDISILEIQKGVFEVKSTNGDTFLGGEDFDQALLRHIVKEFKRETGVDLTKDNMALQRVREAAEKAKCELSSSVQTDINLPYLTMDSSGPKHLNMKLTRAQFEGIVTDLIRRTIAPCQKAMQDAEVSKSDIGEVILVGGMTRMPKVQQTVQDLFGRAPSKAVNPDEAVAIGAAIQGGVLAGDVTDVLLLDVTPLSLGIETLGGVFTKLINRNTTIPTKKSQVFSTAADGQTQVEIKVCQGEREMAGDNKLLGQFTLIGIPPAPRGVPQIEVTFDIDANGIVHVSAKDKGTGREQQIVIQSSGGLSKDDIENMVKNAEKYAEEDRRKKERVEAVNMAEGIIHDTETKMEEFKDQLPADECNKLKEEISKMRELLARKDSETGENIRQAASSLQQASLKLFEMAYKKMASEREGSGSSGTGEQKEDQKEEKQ
The experiment in a line: 2D-TPP in U87 cells. In kind it is binding.

In another assay the target is T9, HSP90B1 (Homo sapiens, UniProt P14625).
T9 construct: endogenous in cells; host or cells: U87 cells
The assay can be described thus: 2D-TPP in U87 cells. Particulars: 1.5 h, stabilized, read-out: pEC50 of protein stabilization, HSP90B1 (converted). In kind it is binding.

Assay [3] has as its target T10, Hsp70 - HAZV NP interaction (Homo sapiens, UniProt P0DMV8).
T10 construct: endogenous in cells; host or cells: HEK293T cells infected with HAZV (MOI 1)
The experiment in a line: Hsp70 immunoprecipitation in HAZV-infected Hek293T cells. In kind it is cell-based. Particulars: HAZV MOI 1, 20 μM, 1 h, statistically not significant.

For assay [4], the target named is T4, DNAJC3. The experiment in a line: 2D-TPP in U87 cells.
A further assay deals with CoV 229E. The experiment in a line: CoV 229E titer in Huh7 cells, end-point dilution assay. In kind it is cell-based, Coronavirus 229E. The conditions noted are these: MOI 5, 10 µM, 24 h.

SMILES strings stand for the structures.

Usually ΔTm stands for the shift of the melting midpoint relative to a reference. As a reminder, the IC50 is the concentration needed to halve the response being measured. Broadly, the inhibition is how much of the control response was suppressed.

T1 sequence (P54652 whole entry): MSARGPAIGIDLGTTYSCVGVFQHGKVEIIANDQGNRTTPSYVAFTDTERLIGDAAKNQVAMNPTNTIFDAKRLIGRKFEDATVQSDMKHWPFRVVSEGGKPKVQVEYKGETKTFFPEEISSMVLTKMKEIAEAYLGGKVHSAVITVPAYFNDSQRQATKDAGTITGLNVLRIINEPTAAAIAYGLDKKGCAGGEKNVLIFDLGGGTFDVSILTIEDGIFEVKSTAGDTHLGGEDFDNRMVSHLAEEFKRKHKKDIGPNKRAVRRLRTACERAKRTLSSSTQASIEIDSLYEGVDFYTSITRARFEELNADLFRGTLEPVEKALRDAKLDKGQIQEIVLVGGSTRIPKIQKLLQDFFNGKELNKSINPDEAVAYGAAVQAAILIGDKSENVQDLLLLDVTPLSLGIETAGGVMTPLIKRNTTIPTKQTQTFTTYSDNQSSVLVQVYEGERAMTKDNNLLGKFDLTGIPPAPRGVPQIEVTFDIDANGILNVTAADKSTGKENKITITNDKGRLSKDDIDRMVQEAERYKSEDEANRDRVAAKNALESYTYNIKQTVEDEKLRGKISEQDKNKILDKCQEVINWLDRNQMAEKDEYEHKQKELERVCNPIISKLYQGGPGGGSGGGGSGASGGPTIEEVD
T3 sequence (P27797 18-417): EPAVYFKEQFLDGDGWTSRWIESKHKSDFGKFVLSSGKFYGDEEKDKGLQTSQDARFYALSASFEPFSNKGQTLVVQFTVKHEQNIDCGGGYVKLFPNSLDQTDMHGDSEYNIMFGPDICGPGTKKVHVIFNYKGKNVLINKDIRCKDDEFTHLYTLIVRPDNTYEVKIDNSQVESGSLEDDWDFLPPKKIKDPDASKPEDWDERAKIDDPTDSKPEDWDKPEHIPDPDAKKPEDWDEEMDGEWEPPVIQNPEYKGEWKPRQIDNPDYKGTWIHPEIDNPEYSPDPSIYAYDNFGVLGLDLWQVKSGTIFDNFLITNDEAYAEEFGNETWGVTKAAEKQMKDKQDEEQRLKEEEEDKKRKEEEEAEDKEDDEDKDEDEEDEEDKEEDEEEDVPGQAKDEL

`CCOC(=O)c1cnn(-c2cccc3c2[nH]c(=O)n3C2CCN(C(=O)Nc3ccc(I)cc3)CC2)c1` [TH6744, ethyl 1-(1-(1-((4-iodophenyl)carbamoyl)piperidin-4-yl)-2-oxo-2,3-dihydro-1H-benzo[d]imidazol-4-yl)-1H-pyrazole-4-carboxylate]: the EC50 on HSPA2 is 3.16 µM; at HSPA8 it was 5.01 µM; at CALR, 3.98 µM; in [2] (temperature 51, Set2) it was 0.89 µM; on HYOU1 it was 10 µM; on HSPA12A, 12.6 µM. In addition, the EC50 is 2.9 µM with Hazara virus (HAZV) (SW13, read-out: EC50 Viral titer); 37.4 µM in the assay on SW13 cells; 6.31 µM on HSP90B1; 3.16 µM on DNAJC3 [4]. Moreover, on OGG1 (SW13 cells, 20 μM), the “binding to OGG1 (CETSA, Western blotting)” value was “binding to its known target OGG1”. The “binding to OGG1 (isothermal dose-response CETSA at 47 °C, Western blotting)” value at OGG1 (U87 cells) is reported as “binding to its known target OGG1 in U87 cells”. Besides, on DNAJC3 [1], the “thermal stability change of DNAJC3” value was “stabilized”. Further, the norm_rel_fc_protein_1_unmodified in assay [2] (temperature 51, dose 1, Set2) came out at 1.349. The same compound had a norm_rel_fc_protein_3_unmodified in assay [2] (temperature 51, dose 3, Set2) of 1.572. For the same compound, the norm_rel_fc_protein_10_unmodified in [2] (temperature 51, dose 10, Set2) came to 1.5768. The compound also yielded a norm_rel_fc_protein_30_unmodified in [2] (temperature 51, dose 30, Set2) of 1.557. Further, the ΔTm at 20 µM on HARS2 is -9.2 °C. Moreover, the 50% inhibitory concentration (IC50) in the assay on Hazara virus (HAZV) (SW13, 24 h, read-out: Antiviral on titer (µM) IC50 [µM]) came to 2.9 µM. Also, the inhibition at 10 µM in the assay on Hazara virus (HAZV) (Vero, 24 h, read-out: Viral inhibition on titer (%)) turned out to be 90%. The “thermal stability change of HSPA9” value on HSPA9 is given as “destabilized”. In addition, the “increase of HAZV NP interaction with Hsp70 (signal intensity)” value in assay [3] was 2 fold. For the same compound, the “reduction of CoV 229E titer” value in the assay on CoV 229E is 95%.
